Target: T1, cellular PARG (Homo sapiens, UniProt Q86W56)
T1 construct: endogenous in cells; host or cells: HeLa
Assay: Nuclear PAR accumulation assay (immunofluorescence high-content imaging)
Type: cell-based
Conditions: HeLa cells, 1 hour compound treatment then MMS 50 μg/mL for an additional hour
Experimental: Compound IC50 values for inhibition of cellular PARG were determined using an immunofluorescence high-content imaging assay for nuclear PAR accumulation. HeLa cells were plated at 15,000 cells/well in a 96-well plate the day before compound treatment and then treated with varying concentrations of test compound and incubated for 1 hour at 37° C.+5% CO2. Following test compound treatment, methylmethane sulfonate (MMS) was added to a final concentration of 50 μg/mL and the cells were incubated for an additional hour. Following treatment, the cells were fixed with ice cold 95% methanol and the plates sealed and placed at −20° C. for 15 minutes. The cells were then washed once with phosphate buffered saline (PBS) and permeabilized with 0.1% Triton-X 100 for 20 minutes at room temperature. The cells were again washed once with PBS and incubated with an anti-poly-ADP ribose (PAR) monoclonal antibody (Millipore Part #AM80 clone 10H) diluted 1:1,000 in 5% fetal bovine serum +0.1% Tween-20+PBS overnight at 4° C. The cells were then washed three times with PBS before incubation with a fluorescently conjugated goat anti-mouse antibody (Invitrogen A32723) diluted 1:500 in 5% FBS+0.1% Tween-20+PBS for 1 hour at room temperature. The cells were again washed three times with PBS and the nuclei labeled by incubating with 1 μg/mL DAPI (4′,6-diamidino-2-phenylindole). Nuclear PAR accumulation was evaluated using high-content fluorescence microscopy. Four fields for each well were acquired at 20× magnification resulting in at least 1,000 cells analyzed per well. Using high-content software (CellReporterXpress) the nuclei were detected and segmented using the DAPI channel and the fluorescence intensity of the PAR-Alexa 488 channel was quantified within the nuclei regions. Both the average intensity per nucleus and percent PAR positive cells were quantified. Percent PAR positive cells were identified by having greater anti-PAR labeling above the threshold set with vehicle DMSO treated control cells. Percent inhibition of PARG by test compounds was calculated by normalizing the data to the 0.1% DMSO and reference compound control values, which represent 0% and 100% inhibition of enzymatic activity, respectively. Concentration-response-curves and IC50 values were generated using four parameter logistic curve fit software.

T1 sequence (Q86W56 whole entry): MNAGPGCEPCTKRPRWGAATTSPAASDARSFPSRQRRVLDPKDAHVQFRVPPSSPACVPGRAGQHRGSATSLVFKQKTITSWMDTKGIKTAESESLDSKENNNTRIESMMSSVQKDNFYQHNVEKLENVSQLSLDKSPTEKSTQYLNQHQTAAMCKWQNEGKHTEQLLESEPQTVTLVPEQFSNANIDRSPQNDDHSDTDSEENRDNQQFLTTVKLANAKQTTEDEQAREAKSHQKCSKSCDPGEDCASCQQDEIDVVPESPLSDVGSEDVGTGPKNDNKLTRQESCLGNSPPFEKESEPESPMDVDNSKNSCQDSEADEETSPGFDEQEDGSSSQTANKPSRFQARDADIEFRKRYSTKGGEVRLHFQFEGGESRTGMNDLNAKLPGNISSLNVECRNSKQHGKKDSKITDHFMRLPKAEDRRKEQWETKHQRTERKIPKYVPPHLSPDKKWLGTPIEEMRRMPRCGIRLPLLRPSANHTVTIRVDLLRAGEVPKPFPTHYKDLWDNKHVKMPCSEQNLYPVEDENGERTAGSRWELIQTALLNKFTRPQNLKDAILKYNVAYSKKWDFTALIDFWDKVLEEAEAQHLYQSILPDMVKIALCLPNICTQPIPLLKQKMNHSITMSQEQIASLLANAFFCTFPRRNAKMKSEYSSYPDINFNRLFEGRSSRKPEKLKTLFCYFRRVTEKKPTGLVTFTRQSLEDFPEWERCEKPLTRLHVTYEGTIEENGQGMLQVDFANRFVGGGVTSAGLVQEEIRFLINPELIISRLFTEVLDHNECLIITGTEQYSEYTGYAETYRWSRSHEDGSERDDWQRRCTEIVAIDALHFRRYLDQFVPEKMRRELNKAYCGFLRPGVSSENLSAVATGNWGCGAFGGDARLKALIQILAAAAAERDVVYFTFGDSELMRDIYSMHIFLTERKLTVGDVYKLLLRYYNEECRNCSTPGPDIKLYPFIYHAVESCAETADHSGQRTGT

Structure (SMILES)	IC50
C#CCN1C(=O)c2cc(S(=O)(=O)NC3(C)CC3)ccc2N2C1=NC[C@H]2C [Example 58, (R)-1-methyl-N-(1-methylcyclopropyl)-5-oxo-4-(prop-2-yn-1-yl)-1,2,4,5-tetrahydroimidazo[1,2-a]quinazoline-7-sulfonamide]	≤ 100 nM
C[C@@H]1CN=C2N(CC3CC3)C(=O)c3cc(S(=O)(=O)NC4(C)CC4)ccc3N21 [Example 3, (R)-4-(cyclopropylmethyl)-1-methyl-N-(1-methylcyclopropyl)-5-oxo-1,2,4,5-tetrahydroimidazo[1,2-a]quinazoline-7-sulfonamide]	100 to 1000 nM
C[C@@H]1CN=C2N(CC3CC(=O)N(C)C3)C(=O)c3cc(S(=O)(=O)NC4(C)CC4)ccc3N21 (single isomer, unassigned) [Example 123]	1000 to 10000 nM
CC[C@@H]1CN=C2N(CC)C(=O)c3cc(S(=O)(=O)NC4(C)CC4)ccc3N21 [Example 42, (R)-1,4-diethyl-N-(1-methylcyclopropyl)-5-oxo-1,2,4,5-tetrahydroimidazo[1,2-a]quinazoline-7-sulfonamide]	100 to 1000 nM
[2H]C([2H])(c1cnc(C)s1)N1C(=O)c2cc(S(=O)(=O)NC3(C)CC3)ccc2N2C1=NC[C@H]2C [Example 63, (R)-1-methyl-N-(1-methylcyclopropyl)-4-((2-methylthiazol-5-yl)methyl-d2)-5-oxo-1,2,4,5-tetrahydroimidazo[1,2-a]quinazoline-7-sulfonamide]	≤ 100 nM
Cc1cc(CN2C(=O)c3cc(S(=O)(=O)NC4(C)CC4)ccc3N3C2=NC[C@@H]3C2CC2)on1 [Example 21, (S)-1-cyclopropyl-N-(1-methylcyclopropyl)-4-((3-methylisoxazol-5-yl)methyl)-5-oxo-1,2,4,5-tetrahydroimidazo[1,2-a]quinazoline-7-sulfonamide]	100 to 1000 nM
Cn1cc(CN2C(=O)c3cc(S(=O)(=O)NC4(C)CC4)ccc3N3CC4(CC4)N=C23)cn1 [Example 100, 4′-((1-methyl-1H-pyrazol-4-yl)methyl)-N-(1-methylcyclopropyl)-5′-oxo-4′,5′-dihydro-1′H-spiro[cyclopropane-1,2′-imidazo[1,2-a]quinazoline]-7′-sulfonamide]	≤ 100 nM
Cn1cc(CN2C(=O)c3cc(S(=O)(=O)NC4(C)CC4)ccc3N3CC4(CCOC4)N=C23)cn1 (centres unmarked) [Example 103, 4′-((1-methyl-1H-pyrazol-4-yl)methyl)-N-(1-methylcyclopropyl)-5′-oxo-4,4′,5,5′-tetrahydro-1′H,2H-spiro[furan-3,2′-imidazo[1,2-a]quinazoline]-7′-sulfonamide]	≤ 100 nM
Cn1cc(CN2C(=O)c3cc(S(=O)(=O)NC4(C)CC4)ccc3N3CC4(CC(F)(F)C4)N=C23)cn1 [Example 102, 3,3-difluoro-4′-((1-methyl-1H-pyrazol-4-yl)methyl)-N-(1-methylcyclopropyl)-5′-oxo-4′,5′-dihydro-1′H-spiro[cyclobutane-1,2′-imidazo[1,2-a]quinazoline]-7′-sulfonamide]	≤ 100 nM
CN1C(=O)c2cc(S(=O)(=O)NC3(C)CC3)ccc2N2C1=NCC2C1CC1 (centres unmarked) [Example 48, 1-cyclopropyl-4-methyl-N-(1-methylcyclopropyl)-5-oxo-1,2,4,5-tetrahydroimidazo[1,2-a]quinazoline-7-sulfonamide]	100 to 1000 nM
Cn1cc(CN2C(=O)c3cc(S(=O)(=O)NC4(C)CC4)ccc3N3CC4(COC4)N=C23)cn1 [Example 116, 4-((1-methyl-1H-pyrazol-4-yl)methyl)-N-(1-methylcyclopropyl)-5-oxo-4,5-dihydro-1H-spiro[imidazo[1,2-a]quinazoline-2,3′-oxetane]-7-sulfonamide]	100 to 1000 nM
C#C[C@H]1CN=C2N(Cc3cc(C)no3)C(=O)c3cc(S(=O)(=O)NC4(C)CC4)ccc3N21 [Example 9, (S)-1-ethynyl-N-(1-methylcyclopropyl)-4-((3-methylisoxazol-5-yl)methyl)-5-oxo-1,2,4,5-tetrahydroimidazo[1,2-a]quinazoline-7-sulfonamide]	100 to 1000 nM
CCN1C(=O)c2cc(S(=O)(=O)NC3(C)CC3)ccc2N2C1=NC[C@H]2C1CC1 [Example 26, (R)-1-cyclopropyl-4-ethyl-N-(1-methylcyclopropyl)-5-oxo-1,2,4,5-tetrahydroimidazo[1,2-a]quinazoline-7-sulfonamide]	100 to 1000 nM

Results, then the compound that gave them:

IC50	Structure (SMILES)
≤ 100 nM	[2H]C([2H])(c1cnn(C)c1)N1C(=O)c2cc(S(=O)(=O)NC3(C)CC3)cc(C(F)(F)F)c2N2C1=NC[C@H]2C [Example 134, (R)-1-methyl-4-((1-methyl-1H-pyrazol-4-yl)methyl-d2)-N-(1-methylcyclopropyl)-5-oxo-9-(trifluoromethyl)-1,2,4,5-tetrahydroimidazo[1,2-a]quinazoline-7-sulfonamide]
≤ 100 nM	C[C@@H]1CN=C2N(Cc3cnn(C)c3)C(=O)c3cc(S(=O)(=O)NC4(C)CC4)c(F)cc3N21 [Example 74, (R)-8-fluoro-1-methyl-4-((1-methyl-1H-pyrazol-4-yl)methyl)-N-(1-methylcyclopropyl)-5-oxo-1,2,4,5-tetrahydroimidazo[1,2-a]quinazoline-7-sulfonamide]
100 to 1000 nM	CNC[C@@H]1CN=C2N(Cc3cnn(C)c3)C(=O)c3cc(S(=O)(=O)NC4(C)CC4)ccc3N21 [Example 99, (R)-4-((1-methyl-1H-pyrazol-4-yl)methyl)-1-((methylamino)methyl)-N-(1-methylcyclopropyl)-5-oxo-1,2,4,5-tetrahydroimidazo[1,2-a]quinazoline-7-sulfonamide]
≤ 100 nM	C[C@@H]1CCN=C2N(Cc3cnn(C)c3)C(=O)c3cc(S(=O)(=O)NC4(C)CC4)ccc3N21 [Example 76, (R)-1-methyl-5-((1-methyl-1H-pyrazol-4-yl)methyl)-N-(1-methylcyclopropyl)-6-oxo-2,3,5,6-tetrahydro-1H-pyrimido[1,2-a]quinazoline-8-sulfonamide]
100 to 1000 nM	Cc1cc(CN2C(=O)c3cc(S(=O)(=O)NC4(C)CC4)ccc3N3C2=NC[C@H]3C)n[nH]1 [Example 5, (R)-1-methyl-4-((5-methyl-1H-pyrazol-3-yl)methyl)-N-(1-methylcyclopropyl)-5-oxo-1,2,4,5-tetrahydroimidazo[1,2-a]quinazoline-7-sulfonamide]
100 to 1000 nM	C[C@@H]1CN=C2N(Cc3cnn(CCO)c3)C(=O)c3cc(S(=O)(=O)NC4(C)CC4)ccc3N21 [Example 1, (R)-4-((1-(2-hydroxyethyl)-1H-pyrazol-4-yl)methyl)-1-methyl-N-(1-methylcyclopropyl)-5-oxo-1,2,4,5-tetrahydroimidazo[1,2-a]quinazoline-7-sulfonamide]
1000 to 10000 nM	C[C@@H]1CN=C2N1c1ccc(S(=O)(=O)NC3(C)CC3)cc1C(=O)N2C1(c2cnn(C)c2)CC1 [Example 114, (R)-1-methyl-4-(1-(1-methyl-1H-pyrazol-4-yl)cydopropyl)-N-(1-methylcyclopropyl)-5-oxo-1,2,4,5-tetrahydroimidazo[1,2-a]quinazoline-7-sulfonamide]
≤ 100 nM	CN(C)C[C@@H]1CN=C2N(Cc3cnn(C)c3)C(=O)c3cc(S(=O)(=O)NC4(C)CC4)ccc3N21 [Example 95, (R)-1-((dimethylamino)methyl)-4-((1-methyl-1H-pyrazol-4-yl)methyl)-N-(1-methylcyclopropyl)-5-oxo-1,2,4,5-tetrahydroimidazo[1,2-a]quinazoline-7-sulfonamide]
100 to 1000 nM	C[C@@H]1CN=C2N(Cc3cn(C)nn3)C(=O)c3cc(S(=O)(=O)NC4(C)CC4)ccc3N21 [Example 90, (R)-1-methyl-4-((1-methyl-1H-1,2,3-triazol-4-yl)methyl)-N-(1-methylcyclopropyl)-5-oxo-1,2,4,5-tetrahydroimidazo[1,2-a]quinazoline-7-sulfonamide]
≤ 100 nM	[2H]C([2H])(c1cnn(C)c1)N1C(=O)c2cc(S(=O)(=O)NC3(C)CC3)cc(Br)c2N2C1=NC[C@H]2C [Example 137, (R)-9-bromo-1-methyl-4-((1-methyl-1H-pyrazol-4-yl)methyl-d2)-N-(1-methylcyclopropyl)-5-oxo-1,2,4,5-tetrahydroimidazo[1,2-a]quinazoline-7-sulfonamide]
100 to 1000 nM	C[C@@H]1CN=C2N(Cc3cccnc3)C(=O)c3cc(S(=O)(=O)NC4(C)CC4)ccc3N21 [Example 4, (R)-1-methyl-N-(1-methylcyclopropyl)-5-oxo-4-(pyridin-3-ylmethyl)-1,2,4,5-tetrahydroimidazo[1,2-a]quinazoline-7-sulfonamide]
≤ 100 nM	COC[C@@H]1CN=C2N(Cc3cnn(C)c3)C(=O)c3cc(S(=O)(=O)NC4(C)CC4)ccc3N21 [Example 77, (S)-1-(methoxymethyl)-4-((1-methyl-1H-pyrazol-4-yl)methyl)-N-(1-methylcyclopropyl)-5-oxo-1,2,4,5-tetrahydroimidazo[1,2-a]quinazoline-7-sulfonamide]
1000 to 10000 nM	CC(c1cnn(C)c1)N1C(=O)c2cc(S(=O)(=O)NC3(C)CC3)ccc2N2C1=NC[C@H]2C (single isomer, unassigned) [Example 126]
